Results on 29 compounds are retold here after patent US20250223268A1, “4-Methylsulfonylbenzamide Compound, Preparation Method, Herbicidal Composition And Use” (Jiangsu Flag Chemical Industry Co., Ltd., priority 2022, published 2025).

Holding throughout (assay): Greenhouse herbicidal activity assay, post-emergence
What all share (format): in vivo

In assay [1] the test system is Cyperus iria. Conditions: Post-emergence test, rate 150 g a.i./hm^2, grade by fresh weight inhibition rate; for pest or weed control at 150 g/ha: Cyperus iria, read-out: Control efficacy grade, Cyperus iria. From the text:
(§1) Post-emergence: Seeds of gramineous weeds (Echinochloa crusgalli, Echinochloa crusgalli var. zelayensis, Echinochloa phyllopogon, Eleusine indica, Digitaria sanguinalis, Leptochloa chinensis, Setaria viridis, Alopecurus japonicus Steud, Beckmannia syzigachne, Polypogon fugax, Alopecurus aequalis, Lolium multiflorum, Poa annua, Aegilops tataschii, Avena fatua, Alopecurus myosuroides, Bromus japonicus), broadleaf weeds (Eclipta prostrata, Amaranthus retroflexus, Rorippa indica, Myosoton aquaticum, Veronica didyma, Galium aparine, Solanum nigrum, Xanthium sibiricum, Conyza canadensis, Sesbania cannabina, Sagittaria trifolia), and Cyperus iria (Cyperus iria, Scirpus juncoides, Cyperus difformis, etc.) were sown in plastic pots (7 cm diameter) with nutrient soil and bottom holes. Crop seeds (including Oryza sativa subsp. indica, Oryza sativa subsp. japonica, Oryza sativa L. var. Glutinosa matsum, Triticum aestivum, Zea mays, Sorghum bicolor, Setaria italica, Glycine max, Gossypium hirsutum, Brassica napus, Arachis hypogaea) were sown in plastic pots (10 cm diameter) with nutrient soil and bottom holes. After sowing, the pots were placed in the growth chamber until the plants reached the 3-6 leaf stage for foliar spraying. Post-treatment, the materials were air-dried naturally and returned to the growth chamber. Results were assessed 14-21 days later.
(§2) • A: Fresh weight inhibition rate≥80% to 100%; • B: Fresh weight inhibition rate[…] to <80%; • C: Fresh weight inhibition rate≥40% to <60%; • D: Fresh weight inhibition rate≥20% to <40%; • E: Fresh weight inhibition rate<20%; • NT: Not tested.

Assay [2] deals with Leptochloa chinensis. Conditions: Post-emergence test, rate 150 g a.i./hm^2; grade by fresh weight inhibition rate.
Description: as §1, §2

For assay [3], the system named is Eclipta prostrata. Particulars: Post-emergence test, rate 150 g a.i./hm^2, grade by fresh weight inhibition rate; for pest or weed control at 150 g/ha: Eclipta prostrata, read-out: Control efficacy grade, Eclipta prostrata.
Description: as §1, §2

In assay [4] the test system is Echinochloa crusgalli. Particulars: Post-emergence test, rate 150 g a.i./hm^2; grade by fresh weight inhibition rate.
Description: as §1, §2

`CCC(C)[S+]([O-])c1c(S(C)(=O)=O)ccc(C(=O)Nc2nnc(C(C)C)o2)c1Cl` (mixture of isomers) [Compound 3-517]: the “Control efficacy grade, Cyperus iria” value in assay [1] is “B (Fresh weight inhibition rate≥260% to <80%)”. Moreover, the “Control efficacy grade, Leptochloa chinensis” value in assay [2] is listed as “A (Fresh weight inhibition rate≥80% to 100%)”. The “Control efficacy grade, Eclipta prostrata” value in assay [3] is “A (Fresh weight inhibition rate≥80% to 100%)”.
With `CCC(C)[S+]([O-])c1c(S(C)(=O)=O)ccc(C(=O)N(C)c2nnc(C)o2)c1Cl` (mixture of isomers) [Compound 3-820], the “Control efficacy grade, Echinochloa crusgalli” value in assay [4] is “A (Fresh weight inhibition rate≥80% to 100%)”.
`CCC(C)[S+]([O-])c1c(S(C)(=O)=O)ccc(C(=O)Nc2nonc2C)c1Cl` (mixture of isomers) [Compound 4-19]: the “Control efficacy grade, Cyperus iria” value in assay [1] was “A (Fresh weight inhibition rate≥80% to 100%)”. In addition, the “Control efficacy grade, Leptochloa chinensis” value in assay [2] is on record as “A (Fresh weight inhibition rate≥80% to 100%)”. Moreover, the “Control efficacy grade, Eclipta prostrata” value in assay [3] is “A (Fresh weight inhibition rate≥80% to 100%)”.
With `CCC(C)Sc1c(S(C)(=O)=O)ccc(C(=O)Nc2ncnn2C)c1Cl` (racemic) [Compound 2-16], in assay [1], the “Control efficacy grade, Cyperus iria” value is “A (Fresh weight inhibition rate≥80% to 100%)”. In addition, the “Control efficacy grade, Leptochloa chinensis” value in assay [2] is on record as “A (Fresh weight inhibition rate≥80% to 100%)”. The “Control efficacy grade, Eclipta prostrata” value in assay [3] was “A (Fresh weight inhibition rate≥80% to 100%)”.
For the compound `C#CC[S+]([O-])c1c(S(C)(=O)=O)ccc(C(=O)Nc2nnc(C)o2)c1Cl` (racemic) [Compound 3-148], the “Control efficacy grade, Leptochloa chinensis” value in assay [2] is “A (Fresh weight inhibition rate≥80% to 100%)”.
The same measure, in the same setting: then `Cc1nnc(NC(=O)c2ccc(S(C)(=O)=O)c([S+]([O-])CC(F)(F)C(F)(F)F)c2Cl)o1` (racemic) [Compound 3-173], with “A (Fresh weight inhibition rate≥80% to 100%)”.
For `Cc1nnc(NC(=O)c2ccc(S(C)(=O)=O)c([S+]([O-])CCC#N)c2Cl)o1` (racemic) [Compound 3-198], in assay [1], the “Control efficacy grade, Cyperus iria” value is recorded as “A (Fresh weight inhibition rate≥80% to 100%)”. Besides, the “Control efficacy grade, Leptochloa chinensis” value in assay [2] is “A (Fresh weight inhibition rate≥80% to 100%)”. Moreover, the “Control efficacy grade, Eclipta prostrata” value in assay [3] was “A (Fresh weight inhibition rate≥80% to 100%)”.
Take `CC(C)c1nnc(NC(=O)c2ccc(S(C)(=O)=O)c([S+]([O-])C(C)C)c2Cl)o1` (racemic) [Compound 3-505]: the “Control efficacy grade, Cyperus iria” value in assay [1] is reported as “A (Fresh weight inhibition rate≥80% to 100%)”. The “Control efficacy grade, Leptochloa chinensis” value in assay [2] is listed as “A (Fresh weight inhibition rate≥80% to 100%)”. Further, in assay [3], the “Control efficacy grade, Eclipta prostrata” value is “A (Fresh weight inhibition rate≥80% to 100%)”.
`C=CC[S+]([O-])c1c(S(C)(=O)=O)ccc(C(=O)Nc2nnc(C(C)C)o2)c1Cl` (racemic) [Compound 3-571]: in assay [1], the “Control efficacy grade, Cyperus iria” value is recorded as “A (Fresh weight inhibition rate≥80% to 100%)”. Further, the “Control efficacy grade, Eclipta prostrata” value in assay [3] is listed as “A (Fresh weight inhibition rate≥80% to 100%)”.
With `CCc1nnc(N(C)C(=O)c2ccc(S(C)(=O)=O)c([S+]([O-])C3CC3)c2Cl)o1` (racemic) [Compound 3-813], the “Control efficacy grade, Cyperus iria” value in assay [1] was “B (Fresh weight inhibition rate≥260% to <80%)”. Also, in assay [2], the “Control efficacy grade, Leptochloa chinensis” value was “B (Fresh weight inhibition rate≥260% to <80%)”. In assay [3], the “Control efficacy grade, Eclipta prostrata” value was “A (Fresh weight inhibition rate≥80% to 100%)”.
For the compound `CCC(C)Sc1c(S(C)(=O)=O)ccc(C(=O)Nc2nonc2C)c1Cl` (racemic) [Compound 4-16], the “Control efficacy grade, Cyperus iria” value in assay [1] is listed as “A (Fresh weight inhibition rate≥80% to 100%)”.
Turning to `CCCS(=O)(=O)c1c(S(C)(=O)=O)ccc(C(=O)N(C)c2nnnn2C)c1Cl` [Compound 1-101], the “Control efficacy grade, Leptochloa chinensis” value in assay [2] is on record as “B (Fresh weight inhibition rate≥260% to <80%)”. For the same compound, the “Control efficacy grade, Eclipta prostrata” value in assay [3] is reported as “A (Fresh weight inhibition rate≥80% to 100%)”.
With `Cn1ncnc1NC(=O)c1ccc(S(C)(=O)=O)c(SC2CCCC2)c1Cl` [Compound 2-42], the “Control efficacy grade, Cyperus iria” value in assay [1] is recorded as “A (Fresh weight inhibition rate≥80% to 100%)”. The “Control efficacy grade, Leptochloa chinensis” value in assay [2] is listed as “A (Fresh weight inhibition rate≥80% to 100%)”. Further, in assay [3], the “Control efficacy grade, Eclipta prostrata” value is given as “A (Fresh weight inhibition rate≥80% to 100%)”.
As for `Cc1nnc(NC(=O)c2ccc(S(C)(=O)=O)c(SCc3ccccc3)c2Cl)o1` [Compound 3-67], in assay [1], the “Control efficacy grade, Cyperus iria” value is “A (Fresh weight inhibition rate≥80% to 100%)”.
Same read-out and setting: then `Cc1nnc(NC(=O)c2ccc(S(C)(=O)=O)c(SC3CCCCC3)c2Cl)o1` [Compound 3-92], with “A (Fresh weight inhibition rate≥80% to 100%)”.
Consider `CCCCS(=O)(=O)c1c(S(C)(=O)=O)ccc(C(=O)Nc2nnco2)c1Cl` [Compound 3-281], for which the “Control efficacy grade, Cyperus iria” value in assay [1] was “A (Fresh weight inhibition rate≥80% to 100%)”. Further, the “Control efficacy grade, Leptochloa chinensis” value in assay [2] was “A (Fresh weight inhibition rate≥80% to 100%)”. In addition, the “Control efficacy grade, Eclipta prostrata” value in assay [3] is reported as “A (Fresh weight inhibition rate≥80% to 100%)”.
With `CC(C)CS(=O)(=O)c1c(S(C)(=O)=O)ccc(C(=O)Nc2nnco2)c1Cl` [Compound 3-297], in assay [1], the “Control efficacy grade, Cyperus iria” value is “A (Fresh weight inhibition rate≥80% to 100%)”. Further, the “Control efficacy grade, Leptochloa chinensis” value in assay [2] is reported as “B (Fresh weight inhibition rate≥260% to <80%)”. Moreover, the “Control efficacy grade, Eclipta prostrata” value in assay [3] is “A (Fresh weight inhibition rate≥80% to 100%)”.
Turning to `CS(=O)(=O)c1ccc(C(=O)Nc2nnco2)c(Cl)c1S(=O)(=O)CCCl` [Compound 3-382], the “Control efficacy grade, Leptochloa chinensis” value in assay [2] is recorded as “A (Fresh weight inhibition rate≥80% to 100%)”.
In the case of `CCCCSc1c(S(C)(=O)=O)ccc(C(=O)Nc2nnc(CC)o2)c1Cl` [Compound 3-393], in assay [1], the “Control efficacy grade, Cyperus iria” value is reported as “A (Fresh weight inhibition rate≥80% to 100%)”. In assay [2], the “Control efficacy grade, Leptochloa chinensis” value is recorded as “B (Fresh weight inhibition rate≥260% to <80%)”.
Consider `CCCCS(=O)(=O)c1c(S(C)(=O)=O)ccc(C(=O)Nc2nnc(CC)o2)c1Cl` [Compound 3-397], for which, in assay [1], the “Control efficacy grade, Cyperus iria” value is “A (Fresh weight inhibition rate≥80% to 100%)”. In addition, in assay [3], the “Control efficacy grade, Eclipta prostrata” value is “A (Fresh weight inhibition rate≥80% to 100%)”.
Turning to `CCc1nnc(NC(=O)c2ccc(S(C)(=O)=O)c(S(=O)(=O)CC(C)C)c2Cl)o1` [Compound 3-413], the “Control efficacy grade, Cyperus iria” value in assay [1] is “A (Fresh weight inhibition rate≥80% to 100%)”. For the same compound, the “Control efficacy grade, Leptochloa chinensis” value in assay [2] is “A (Fresh weight inhibition rate≥80% to 100%)”. Moreover, the “Control efficacy grade, Eclipta prostrata” value in assay [3] is reported as “A (Fresh weight inhibition rate≥80% to 100%)”.
On to `CCc1nnc(NC(=O)c2ccc(S(C)(=O)=O)c(S(=O)(=O)CCCl)c2Cl)o1` [Compound 3-498], for which the “Control efficacy grade, Leptochloa chinensis” value in assay [2] is recorded as “A (Fresh weight inhibition rate≥80% to 100%)”.
Turning to `CCCSc1c(S(C)(=O)=O)ccc(C(=O)Nc2nnc(C(C)C)o2)c1Cl` [Compound 3-499, 2-chloro-N-(5-isopropyl-1,3,4-oxadiazol-2-yl)-4-(methylsulfonyl)-3-(propylthio)benzamide], the pest or weed control at 150 g/ha in assay [1] was 80 to 100%.
Take `C=CCSc1c(S(C)(=O)=O)ccc(C(=O)Nc2nnc(C(C)C)o2)c1Cl` [Compound 3-570]: in assay [1], the “Control efficacy grade, Cyperus iria” value is recorded as “A (Fresh weight inhibition rate≥80% to 100%)”. For the same compound, the “Control efficacy grade, Leptochloa chinensis” value in assay [2] is on record as “B (Fresh weight inhibition rate≥260% to <80%)”. Moreover, in assay [3], the “Control efficacy grade, Eclipta prostrata” value is given as “A (Fresh weight inhibition rate≥80% to 100%)”.
In the case of `CCCS(=O)(=O)c1c(S(C)(=O)=O)ccc(C(=O)Nc2nonc2C)c1Cl` [Compound 4-5, 2-chloro-N-(4-methyl-1,2,5-oxadiazol-3-yl)-4-(methylsulfonyl)-3-(propylsulfonyl)benzamide], the pest or weed control at 150 g/ha in assay [1] and in assay [3] was 80 to 100% in each case.
Regarding `Cc1nonc1NC(=O)c1ccc(S(C)(=O)=O)c(SC(C)C)c1Cl` [Compound 4-6], in assay [2], the “Control efficacy grade, Leptochloa chinensis” value is reported as “A (Fresh weight inhibition rate≥80% to 100%)”.
For `Cc1nonc1NC(=O)c1ccc(S(C)(=O)=O)c(SCC2CC2)c1Cl` [Compound 4-32, 2-chloro-3-((cyclopropylmethyl)thio)-N-(4-meth 1-1,2,5-oxadiazol-3-yl)-4-(methylsulfonyl)benzamide], in assay [1], the pest or weed control at 150 g/ha fell in the range of 80 to 100%.
Still for that read-out and setting: then `Cc1nonc1NC(=O)c1ccc(S(C)(=O)=O)c(S(=O)(=O)CC2CC2)c1Cl` [Compound 4-36, 2-chloro-3-((cyclopropylmethyl)sulfonyl)-N-(4-methyl-1,2,5-oxadiazol-3-yl)-4-(methylsulfonyl)benzamide], with 80 to 100%.
Regarding `CCC[S+]([O-])c1c(S(C)(=O)=O)ccc(C(=O)N(C)c2nonc2C)c1Cl` (stereo not drawn) [Compound 4-272, 2-chloro-N-methyl-N-(4-methyl-1,2,5-oxadiazol-3-yl)-4-(methylsulfonyl)-3-(propylsulfinyl)benzamide], the pest or weed control at 150 g/ha in assay [1] and in assay [3] was 80 to 100% each time.
